Measured values reported in article PMC9912108, “The actin bundling activity of ITPKA mainly accounts for its migration-promoting effect in lung cancer cells” (Bioscience Reports, 2023).
pIC50: −log10 of the molar value.

Legend:
[1] = target: T1, ITPKA (Ins(1,4,5)P3-kinase-A) (Homo sapiens, UniProt P23677); assay: coupled optical InsP3-kinase assay (pyruvate kinase/lactate dehydrogenase, NADH) with […] recombinant ITPKA; format: biochemical
T1 construct: expressed in bacteria as GFP-His-fusion protein, tags cleaved with TEV protease

[2] = target: F-actin (filamentous actin) (chicken) (UniProt P68139); assay: co-sedimentation; F-actin bundling assay: G-actin in F-actin buffer (20 mM Tris-HCl pH 7.5, 100 mM KCl, 2 mM MgCl2, 1 mM EGTA, 1 mM DTT, 0.5 mM ATP) with or without ITPKA proteins, 20 min at RT, 10,000 g for 20 min at 4°C; about 1 µM F-actin, 0.5 µM ITPKA, 10-fold excess of ITPKA^L34P; supernatant and pellet on Coomassie-stained SDS-PAGE

T1 sequence (P23677 whole entry, the tested form may be a part): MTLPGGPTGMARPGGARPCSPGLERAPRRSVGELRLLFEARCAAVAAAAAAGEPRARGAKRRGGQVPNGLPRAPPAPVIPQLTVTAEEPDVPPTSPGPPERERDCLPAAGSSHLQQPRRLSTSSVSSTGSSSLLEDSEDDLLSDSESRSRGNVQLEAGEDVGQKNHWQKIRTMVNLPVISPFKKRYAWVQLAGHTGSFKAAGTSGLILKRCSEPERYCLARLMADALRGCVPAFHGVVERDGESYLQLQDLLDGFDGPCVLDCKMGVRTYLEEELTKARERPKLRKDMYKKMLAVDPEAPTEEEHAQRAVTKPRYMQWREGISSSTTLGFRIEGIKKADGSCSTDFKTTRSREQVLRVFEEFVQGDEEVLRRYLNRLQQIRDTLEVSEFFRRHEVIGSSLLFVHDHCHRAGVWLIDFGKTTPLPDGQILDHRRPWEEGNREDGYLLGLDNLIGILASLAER
Sequence of Ins(1,4,5)P3-kinase-A (ITPKA), wild type (P23677 whole entry): as the sequence (P23677 whole entry, the tested form may be a part) above

Compound | pIC50 [1] | percent of F-actin bundled [2] [%]
C[C@@H]1CN(Cc2cn[nH]c2-c2ccc(C#N)cc2)CCN1c1ccc(C(F)(F)F)cn1 [GNF362] | 7.77 | 
Ins(1,4,5)P3-kinase-A (ITPKA), wild type (from UniProt P23677 1-461) (enzyme) |  | 60
